Earlier results on one compound are cited in US6749867B2, “Delivery system for omeprazole and its salts” (priority 2000, dated 2004).

The conditions of series [1]: in vivo.
Assay in series [2]: not given
This is another data set of the same source.

Where two headings read alike, the source gives them in different places.

As for `COc1ccc2[nH]c([S+]([O-])Cc3ncc(C)c(OC)c3C)nc2c1` (stereo not drawn) [omeprazole, Omeprazole], the “solubility in alkaline solution” value (alkaline solution, as the negatively charged ion) is “very soluble”. The solubility in water result (water) is recorded as “very slightly soluble”. Moreover, the plasma half-life entry in series [1] is listed as “about 60 minutes”. In addition, the half-life of degradation entry in series [2] (acidic aqueous solutions, pH values below 4) is “less than 10 minutes”; in series [2] (pH 6.5) it was “about 18 hours”; in series [2] (pH 11), “several hundred”.
